Values after ≈ are worked out from the molar mass of the structure shown. Like-named read-outs stand apart in the source and are kept apart here. Square brackets hold non-standard residues; d marks the D form. Ends that are not written are not given here. Dha = C=C(N)C(=O)O
Experiments:
E. faecium 11.4103A = test: MIC, two-fold serial dilution in broth; format: cell-based, Enterococcus faecium; conditions: Table 8B; MHB + 50 μg/ml calcium; duplicate
Method: (§1) A selection of the variants produced in Example 1 above were tested further for activity against a range of bacteria. Minimum inhibitory concentrations (MICs) for all organisms with the exception of Streptococcus pneumoniae were determined by two-fold serial antibiotic dilutions in Mueller-Hinton broth (MHB) supplemented with 50 μg/ml calcium as calcium chloride dihydrate. Minimum inhibitory concentrations (MICs) for S. pneumoniae were determined by two-fold serial antibiotic dilutions in Brain Heart Infusion (BHI) broth supplemented with 50 μg/ml calcium as calcium chloride dihydrate. Antimicrobial agent stock solutions were prepared and stored according to NCCLS standard M7-A6.
(§2) Actively growing broth cultures were diluted to contain […] by adjusting to an absorbance of 0.2-0.3 at 600 nm, equivalent to the McFarland 0.5 standard. They were then diluted a further 1:100 in broth. The assays were performed in duplicate in sterile 96-well microtitre plates in a total volume of 200 μl (160 μl broth, 20 μl antibiotic, 20 μl inoculum) in a concentration range from 64 μg/ml to 0.06 μg/ml. The 12th well of the microtitre plate contained no antimicrobial agent. Vancomycin was used as a reference antibiotic for quality control. Plates were incubated aerobically, shaking, for 18-20 hours at 37° C. with the MIC defined as the lowest concentration of drug that produced no visible growth.

E. faecium 19579 = test: MIC, two-fold serial dilution in broth; format: cell-based, Enterococcus faecium; conditions: Table 8A; MHB + 50 μg/ml calcium; duplicate
Method: as §1, §2

E. faecalis 29212 = test: MIC, two-fold serial dilution in broth; format: cell-based, Enterococcus faecalis; conditions: Table 8A; MHB + 50 μg/ml calcium; duplicate
Method: as §1, §2

S. aureus R33 = format: cell-based, Staphylococcus aureus; conditions: Table 8A; MHB + 50 μg/ml calcium; duplicate
Method: as §1, §2

S. aureus SH1000 = format: cell-based, Staphylococcus aureus; conditions: Table 8A; MHB + 50 μg/ml calcium; duplicate
Method: as §1, §2

M. luteus 4698 = format: cell-based, Micrococcus luteus
Method: as §1, §2

S. pneumoniae R6 = format: cell-based, Streptococcus pneumoniae; conditions: Table 8B; BHI broth + 50 μg/ml calcium; duplicate
Method: as §1, §2

E. coli SM1411 = test: MIC, two-fold serial dilution in broth; format: cell-based; conditions: Table 8B; MHB + 50 μg/ml calcium; duplicate
Method: as §1
as §2, with “Plates were incubated aerobically, shaking, for 18-20 hours at 37° C. with the MIC defined as the lowest concentration of drug that produced no visible growth.” left out

S. pyogenes 13608 = format: cell-based, Streptococcus pyogenes
Method: (§3) MIC tests were performed with some of the variants of Example 2 on a range of other organisms. The results are shown in Tables 9 and 10 (figures in μg/ml): […]

S. pyogenes 16205 = format: cell-based, Streptococcus pyogenes
Method: as §3

S. aureus 1012-13 MRSA = format: cell-based, Staphylococcus aureus
Method: as §3

S. aureus COL MRSA = format: cell-based, Staphylococcus aureus
Method: as §3

S. aureus CS = format: cell-based, Staphylococcus aureus
Method: as §3

S. aureus SG511 = format: cell-based, Staphylococcus aureus
Method: as §3

E. faecium 4147 VRE = format: cell-based, Enterococcus faecium; conditions: 4147 VRE
Method: as §3

E. faecium 4147-1 = format: cell-based, Enterococcus faecium; conditions: 4147-1
Method: as §3

M. luteus = conditions: data of Szekat et al.; cited from earlier work
E. faecium 7131121 = test: MIC, two-fold serial dilution in broth; format: cell-based, Enterococcus faecium; conditions: Table 8A; MHB + 50 μg/ml calcium; duplicate
Method: as §1, §2

S. epidermidis 11047 = format: cell-based, Staphylococcus epidermidis; conditions: Table 8B; MHB + 50 μg/ml calcium; duplicate
Method: as §1, §2

Row | Compound | MIC E. faecium 11.4103A (E. faecium 11.4103A) | MIC E. faecium 19579 (E. faecium 19579) | MIC E. faecalis 29212 (E. faecalis 29212) | MIC S. aureus R33 (S. aureus R33) | MIC S. aureus SH1000 (S. aureus SH1000) | MIC M. luteus 4698 (M. luteus 4698; Table 8B, MHB + 50 μg/ml calcium, duplicate) | MIC M. luteus 4698 (M. luteus 4698; 4698) [µg/mL] | MIC S. pneumoniae R6 (S. pneumoniae R6) | MIC E. coli SM1411 (E. coli SM1411) | MIC S. pyogenes 13608 (S. pyogenes 13608) [µg/mL] | MIC S. pyogenes 16205 (S. pyogenes 16205) [µg/mL] | MIC S. aureus 1012-13 MRSA (S. aureus 1012-13 MRSA) [µg/mL] | MIC S. aureus COL MRSA (S. aureus COL MRSA) [µg/mL] | MIC S. aureus CS (S. aureus CS) [µg/mL] | MIC S. aureus SG511 (S. aureus SG511) [µg/mL] | MIC E. faecium 4147 VRE (E. faecium 4147 VRE) [µg/mL] | MIC E. faecium 4147-1 (E. faecium 4147-1) [µg/mL] | MIC against M. luteus (M. luteus) [µg/mL] | MIC E. faecium 7131121 (E. faecium 7131121) | MIC S. epidermidis 11047 (S. epidermidis 11047)
1 | G10V: mersacidin variant (CTFTLPGGGVVCTLT[Dha]ECIC; thioether (positions not given here); not fully specified; UniProt P43683 49-68, looked up, variant G10V) | >64, >64 μg/ml | >64, >64 μg/ml | >64, >64 μg/ml | >64, >64 μg/ml | >64, >64 μg/ml | <4, <4 μg/ml |  |  |  |  |  |  |  |  |  |  |  |  |  | 
2 | C=C1NC(=O)C2NC(=O)[C@H](CC(C)C)NC(=O)C(NC(=O)[C@@H]3CSC(C)C(NC(=O)[C@H](Cc4ccccc4)NC(=O)C4NC(=O)[C@@H](N)CSC4C)C(=O)N[C@@H](CC(C)C)C(=O)N4CCC[C@H]4C(=O)NCC(=O)NCC(=O)NCC(=O)NCC(=O)N[C@@H](C(C)C)C(=O)N3)C(C)SC[C@H](NC(=O)[C@H](CCC(=O)O)NC1=O)C(=O)N[C@@H]([C@@H](C)CC)C(=O)NC=CSC2C (stereo partly shown) [Mersacidin, mersacidin] |  |  |  |  |  |  | 0.5 (≈ 0.274 µM) | <4, <4 μg/ml | >64, >64 μg/ml | 0.25 (≈ 0.137 µM) | 0.5 (≈ 0.274 µM) | 8 (≈ 4.38 µM) | 16 (≈ 8.76 µM) | 4 (≈ 2.19 µM) | 2 (≈ 1.1 µM) | 64 (≈ 35 µM) | 64 (≈ 35 µM) | 0.195 (≈ 0.107 µM) |  | 
3 | G9S: mersacidin variant (CTFTLPGGSGVCTLT[Dha]ECIC; thioether (positions not given here); not fully specified; UniProt P43683 49-68, looked up, variant G9S) |  | >64, >64 μg/ml | >64, >64 μg/ml | >64, >64 μg/ml | >64, >64 μg/ml |  |  | >64, >64 μg/ml |  |  |  |  |  |  |  |  |  |  | >64, >64 μg/ml | >64, >64 μg/ml
